According to the supplement of paper PMC10307832:

Key:
Experiment in all cases: relative viability (nuclei count vs DMSO), 5 days (fraction); higher = more cells survive
Carboplatin + Tozasertib = compound: C1CC(C1)(C(=O)O)C(=O)O.[NH2-].[NH2-].[Pt+2] [Carboplatin] + Cc1cc(Nc2cc(N3CCN(C)CC3)nc(Sc3ccc(NC(=O)C4CC4)cc3)n2)n[nH]1 [Tozasertib] (partner 0.1 µM)
Method in brief: (§1)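 After 5 days of treatment, lung cancer cells in 1536-well plates were fixed and stained in a single step (final 0.05% Triton X-100, 1% formaldehyde, 1 ug/ml Hoechst) and their nuclei counted on 4× images. Treatment had been applied by pin tool the day after seeding as one drug alone or as a fixed anchor-drug dose with five library-drug doses (not always all listed) in √10 steps. Relative viability is the nuclei count of treated wells divided by that of vehicle wells, and values are medians of duplicate plates.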

MLN4924 + Vorinostat = compound: NS(=O)(=O)OC[C@@H]1C[C@@H](n2ccc3c(N[C@H]4CCc5ccccc54)ncnc32)C[C@@H]1O [MLN4924] + O=C(CCCCCCC(=O)Nc1ccccc1)NO [Vorinostat] (partner 1 µM)
Method in brief: as §1

GSK126 + OSI-027 = compound: CC[C@H](C)N1C=C(C2=C(C=C(C=C21)C3=CN=C(C=C3)N4CCNCC4)C(=O)NCC5=C(C=C(NC5=O)C)C)C [GSK126] + COc1cccc2cc(-c3nc([C@H]4CC[C@H](C(=O)O)CC4)n4ncnc(N)c34)[nH]c12 [OSI-027] (partner 0.5 µM)
Method in brief: as §1

MLN4924 + Pictilisib = compound: NS(=O)(=O)OC[C@@H]1C[C@@H](n2ccc3c(N[C@H]4CCc5ccccc54)ncnc32)C[C@@H]1O [MLN4924] + CS(=O)(=O)N1CCN(Cc2cc3nc(-c4cccc5[nH]ncc45)nc(N4CCOCC4)c3s2)CC1 [Pictilisib] (partner 1 µM)
Method in brief: as §1

Row | Cell Line | relative viability (Carboplatin + Tozasertib; first compound 0.08 µM) | relative viability (Carboplatin + Tozasertib; first compound 0.253 µM) | relative viability (Carboplatin + Tozasertib; first compound 0.8 µM) | relative viability (Carboplatin + Tozasertib; first compound 2.53 µM) | relative viability (Carboplatin + Tozasertib; first compound 8 µM) | relative viability (MLN4924 + Vorinostat; first compound 0.04 µM) | relative viability (MLN4924 + Vorinostat; first compound 0.1265 µM) | relative viability (MLN4924 + Vorinostat; first compound 0.4 µM) | relative viability (MLN4924 + Vorinostat; first compound 1.265 µM) | relative viability (MLN4924 + Vorinostat; first compound 4 µM) | relative viability (GSK126 + OSI-027; first compound 0.08 µM) | relative viability (GSK126 + OSI-027; first compound 0.253 µM) | relative viability (GSK126 + OSI-027; first compound 0.8 µM) | relative viability (GSK126 + OSI-027; first compound 2.53 µM) | relative viability (GSK126 + OSI-027; first compound 8 µM) | relative viability (MLN4924 + Pictilisib; first compound 0.04 µM) | relative viability (MLN4924 + Pictilisib; first compound 0.1265 µM) | relative viability (MLN4924 + Pictilisib; first compound 0.4 µM) | relative viability (MLN4924 + Pictilisib; first compound 1.265 µM) | relative viability (MLN4924 + Pictilisib; first compound 4 µM)
1 | NCI-H2170 | 0.732 | 0.687 | 0.642 | 0.71 | 0.535 | 0.774 | 0.364 | 0.326 | 0.135 | 0.13 | 0.809 | 0.817 | 0.712 | 0.749 | 0.737 | 0.36 | 0.37 | 0.217 | 0.135 | 0.171
2 | NCI-H2228 | 0.276 | 0.252 | 0.246 | 0.225 | 0.209 | 0.73 | 0.601 | 0.581 | 0.13 | 0.0923 | 0.635 | 0.729 | 0.579 | 0.613 | 0.634 | – | 0.504 | 0.101 | 0.111 | 0.196
3 | NCI-H2347 | 0.54 | 0.547 | 0.637 | 0.633 | 0.56 | 0.494 | 0.562 | 0.433 | 0.347 | 0.327 | 0.433 | 0.356 | 0.49 | 0.463 | 0.346 | 0.841 | 0.895 | 0.387 | 0.324 | 0.369
4 | NCI-H2405 | 0.786 | 0.779 | 0.688 | 0.682 | 0.768 | 0.861 | 0.849 | 0.411 | 0.181 | 0.19 | 0.602 | 0.633 | 0.611 | 0.622 | 0.662 | 0.452 | 0.73 | 0.505 | 0.246 | 0.254
5 | NCI-H3122 | 0.371 | 0.336 | 0.381 | 0.329 | 0.411 | 0.708 | 0.579 | 0.232 | 0.103 | 0.0771 | 1.23 | 0.953 | 0.963 | 1.01 | 0.896 | 0.591 | 0.376 | 0.222 | 0.153 | 0.136
6 | PC-3 [JPC-3] | 0.863 | 0.877 | 0.863 | 0.853 | 0.765 | 0.735 | 0.787 | 0.409 | 0.338 | 0.468 | 0.839 | 0.847 | 0.76 | 0.822 | 0.855 | 0.904 | 0.817 | 0.334 | 0.251 | 0.313
7 | PC-14 | 0.553 | 0.582 | 0.443 | 0.314 | 0.202 | 0.81 | 0.781 | 0.154 | 0.0306 | 0.0361 | 1.06 | 0.854 | 0.757 | 0.939 | 0.83 | 0.849 | 0.634 | 0.307 | 0.0791 | 0.0776
8 | RERF-LC-KJ | 0.553 | 0.471 | 0.483 | 0.406 | 0.386 | 0.579 | 0.328 | 0.205 | 0.192 | 0.236 | 0.648 | 0.66 | 0.597 | 0.652 | 0.575 | 0.532 | 0.315 | 0.154 | 0.139 | 0.192
9 | SK-LU-1 | 0.366 | 0.293 | 0.341 | 0.346 | 0.275 | 0.581 | 0.425 | 0.161 | 0.196 | 0.244 | 0.435 | 0.37 | 0.401 | 0.416 | 0.387 | 0.411 | 0.505 | 0.383 | 0.171 | 0.172
10 | SK-MES-1 | 0.812 | 0.938 | 0.925 | 0.922 | 0.843 | 1.14 | 1.02 | 0.351 | 0.162 | 0.216 | 0.626 | 0.649 | 0.637 | 0.654 | 0.712 | 0.425 | 0.535 | 0.356 | 0.174 | 0.198
11 | SW 1573 | 0.2 | 0.191 | 0.19 | 0.173 | 0.207 | 0.48 | 0.521 | 0.14 | 0.0422 | 0.0551 | 0.959 | 0.656 | 0.665 | 0.625 | 0.846 | 0.487 | 0.637 | 0.22 | 0.0805 | 0.0657
